In patent US20260356879A1, “CELASTROL DERIVATIVES” (Celloram Inc., priority 2022, published 2026):
Like-named read-outs stand apart in the source and are kept apart here.

Key:
[1] = system: NF-kB; experiment: NF-kB luciferase reporter assay (HepG2 NF-kB-Luc reporter cells, IL-1β stimulated); assay type: cell-based, human; conditions: for IC50: Homo sapiens; for % IC50 relative to Celastrol: relative to celastrol (compound 1)
Procedure: HepG2 NF-kB-Luc reporter cells stimulated with IL-1β (20 ng/ml) and the relative NF-kB luciferase activity (RLU) was determined for each of celastrol (compound 1) and each of the exemplary derivative compounds at the following eight point concentrations: 10 μM, 5 μM, 2.5 μM, 1.25 μM, 0.63 μM, 0.31 μM, 0.16 μM, 0.016 μM, and 0 μM). Assay values were plotted (not shown) and IC50 inhibitory concentrations were calculated after normalization using Prizm 9.0 software.
This example illustrates a study of the anti-inflammatory potential of an exemplary celastrol derivative of the present disclosure (compound 22) using an NF-κB luciferase promoter reporter gene assay in the human liver cancer cell line, HepG2.
NF-kB luciferase reporter assay: The celastrol derivative, compound 22 (prepared as described in Example 13) and the parent molecule, compound 1 (celastrol), were freshly dissolved in DMSO. HepG2 NF-κB reporter cells were seeded (2.5×10^4/well) in 96-well plate and then pre-treated with either compound 22 or compound 1 at the 8-point concentrations of 10, 5, 2.5, 1.25, 0.63, 0.31, 0.16, 0.016, or 0 μM, respectively, and the NF-κB promoter was activated by adding IL-1β (20 ng/ml) to the cells. After 18 hours, the cells were harvested by adding the 1× passive cell lysis buffer (Promega) and followed by measurement of the relative NF-kB luciferase activity (RLU) using GloMax discover microplate reader (Promega). Inhibitory concentrations (IC50) after normalization using Prizm 9.0 software.

[2] = system: TNF-α secretion; experiment: Secreted TNF-α in conditioned media of BMDC (ELISA), LPS+ATP or LPS+Nigericin; assay type: cell-based; conditions: 63-500 nM, FIG. 2C
Procedure: FIG. 2A depicts western blot images showing the relative NLRP3 inflammasome activity of the compounds 22 (CLM-022) and 1 (CLM-001) by detecting the level of cellular ASC complex and the mature form of IL-1β (15 kDa) in a conditioned media of BMDCs treated with LPS (100 ng/ml) for 3 hours and then the compound at 50 nM, 100 nM, and 500 nM concentration for 30 min, followed by ATP or Nigericin. ASC monomer and β-Actin proteins were used as controls. FIG. 2B depict plots of results showing secreted IL-1β levels measured by ELISA using conditioned media of BMDC treated with the compound 22 or compound 1 at 63 nM, 125 nM, 250 nM, and 500 nM, under NLRP3 inflammasome activation induced either by LPS+ATP or LPS+Nigericin. FIG. 2C depict plots of results showing secreted TNF-α levels measured by ELISA using conditioned media of BMDC treated with the compound 22 or compound 1 at 63 nM, 125 nM, 250 nM, and 500 nM, under NLRP3 inflammasome activation induced either by LPS+ATP or LPS+Nigericin.
3. The secreted form of TNF-α, a NLRP3 inflammasome independent cytokine, induced by LPS+ATP or LPS+Nigericin were measured by ELISA assay using the conditioned media of BMDC treated with compound 1 (CLM-1) or compound 22 (CLM-022) at concentrations of 63, 125, 250, 500 nM under NLRP3 inflammasome activation induced either by LPS+ATP or LPS+Nigericin.

[3] = system: LPS-induced acute inflammation; experiment: LPS-induced septic shock mouse model, cytokine expression in serum (ELISA) and colonic mucosa (qPCR); assay type: in vivo; conditions: 1 mg/kg i.p. 1 hour before LPS (25 mg/kg, i.p.), 4 hours post LPS, ELISA; FIG. 4A
Procedure: FIG. 4A, and FIG. 4B depict results showing that compound 22 (CLM-022) decreased the production of pro-inflammatory cytokines in the LPS-induced septic shock mouse model as described in Example 17. Compound 1 (CLM-001) and compound 22 (CLM-022) (1 mg/kg) injected intraperitoneally 1 hour prior to septic shock induction by administering sublethal dose of LPS (25 mg/kg, i.p.), mice were sacrificed 4 hours post LPS injection, and subjected to measurement of inflammatory cytokine expression. FIG. 4A depicts plot of data showing that the level of TNF-α decreased in the serum of compound 1 and compound 22 treated mice.
This example illustrates a study of the inhibitory function of an exemplary celastrol derivative of the present disclosure (compound 22) against LPS-induced acute inflammation in vivo, we set up LPS-induced septic shock mouse model (Yu et al., 2017) and detected the expression levels of inflammatory cytokines in colon.
Mice (n=3 per group) were administered intraperitoneally (i.p.) with control vehicle, compound 1 (1 mg/kg), or compound 22 (1 mg/kg). After 1 hour, mice were administered by i.p. injection a sublethal dose of LPS (25 mg/kg). Four hours later, the mice were subjected to blood collection and harvesting colonic mucosa by scraping colon. Cytokine expression was measured by conducting ELISA (Cat #900-T54, PeproTech) for TNF-α on blood serum samples and qPCR for the cytokines, IL-1 (TaqMan, Mm00434228), IL-6 (TaqMan, Mm00446190), TNF-α (TaqMan, 00443258), iNOS (TaqMan, 00440502), on colonic mucosa samples.

[4] = system: THP-1 cells; experiment: LDH release (NLRP3 inflammasome-induced cytotoxicity) in THP-1 cells; assay type: cell-based, human; conditions: THP-1, LPS and Nigericin, FIG. 7B
Excerpt: (§1) Pyroptosis, a pro-inflammatory form of cell death, is triggered by the activation of NLRP3 inflammasome components (GSDMD and Caspase-1), leading to the release of pro-inflammatory cytokines IL-1β and IL-18, as well as damage-associated molecular patterns (DAMPs). This process elicits a cascade of inflammatory responses, which can persist if dysregulated in affected tissues. Given the significant inhibitory potential of CLM-022 against NLRP3 inflammasome and IL-1β secretion, it was proposed that CLM-022 could effectively enhance cell viability by inhibiting pyroptosis in the context of inflammation and inflammasome activation. This example illustrates a comparative study of the abilities of CLM-022 and MCC950 to protect THP-1 cells from inflammasome-induced pyroptosis.
(§2) After LPS and Nigericin treatment, THP-1 cells were treated with either CLM-022 or MCC950 over a dosage range of 0 μM to 10 μM and cell viability was determined by impermeant live/dead staining dye and flow cytometric analysis. Additionally, NLRP3 inflammasome-induced cytotoxicity was investigated by measuring the level of LDH in the conditioned media after the CLM-022 and MCC950 treatments. Further, Western blotting of samples from the THP-1 cell viability assays was carried out to determine levels of the pyroptosis-mediating molecules, GSDMD and Caspase-1.

[5] = system: GSDMD and Caspase-1; experiment: GSDMD and Caspase-1 cleavage in THP-1 cells (western blot); assay type: cell-based; conditions: Homo sapiens; THP-1, western blot; FIG. 7C; read-out: concentration inhibiting GSDMD and Caspase-1 cleavage
Excerpt: as §1, §2

[6] = system: NLRP3 inflammasome; experiment: IL-1β secretion in THP-1 macrophages, LPS + Nigericin; assay type: cell-based; conditions: human THP-1 macrophages, LPS (100 ng/ml) + Nigericin (10 μM), 0-10 μM; FIG. 5C; read-out: IC50 for inhibition of IL-1β secretion
Procedure: (§3) This example illustrates a comparative study of CLM-022 and MCC950 in inhibiting NLRP3 inflammasome activity in mouse and human macrophages.
To confirm the inhibitory effect of CLM-022 in human macrophages, THP-1 cells, a human leukemia monocytic cell line, were differentiated into macrophages using phorbol 12-myristate-13-acetate (PMA, 100 ng/ml) treatment for one day. The THP-1 macrophages were then treated with LPS (100 ng/ml) for 3 hours to induce the expression of inflammatory genes. Subsequently, the THP-1 cells were treated with CLM-022 or MCC950 in a dose range of 0-10 μM for 30 minutes. Then, to fully activate NLRP3-dependent inflammasome activity, Nigericin (10 μM) was added to the THP-1 cells for an additional 60 min.

[7] = system: TNF-α secretion; experiment: TNF-α secretion in BMDMs, LPS + Nigericin; assay type: cell-based, mouse; conditions: FIG. 5B
Procedure: as §3
(§4) Bone marrow-derived macrophages (BMDMs) were treated with LPS (100 ng/ml) for 3 hours to induce the expression of inflammatory genes, including TNF-α, NLRP3, and pro-IL-1β. Subsequently, the BMDMs were treated with CLM-022 or MCC950 in a dose range of 0-10 μM for 30 minutes. Then, to fully activate NLRP3-dependent inflammasome activity and cytokine secretion, Nigericin (10 μM) was added to the BMDMs for an additional 30 minutes.

[8] = system: NLRP3 inflammasome; experiment: IL-1β secretion in BMDMs, LPS + Nigericin; assay type: cell-based, mouse; conditions: Mus musculus, BMDM, LPS (100 ng/ml) + Nigericin (10 μM), 0-10 μM, FIG. 5A, read-out: IC50 for inhibition of IL-1β secretion (normalized)
Procedure: as §3, §4

[9] = system: THP-1 cells; experiment: THP-1 cell viability (inflammasome-induced pyroptosis), live/dead staining and flow cytometry; assay type: cell-based, human; conditions: THP-1, LPS and Nigericin; FIG. 7A
Excerpt: as §1, §2

[10] = HepG2 NF-kB-Luc reporter cells, IL-1β (20 ng/ml), Example 13, read-out: NF-kB IC50

Q: What does the source list for `CC1=C(O)C(=O)C=C2C1=CC=C1[C@@]2(C)CC[C@@]2(C)C3C[C@](C)(N(C)C(=O)C(=O)N4CCN(C)CC4)CC[C@]3(C)CC[C@]12C` (stereo partly drawn) [Compound 16, N-((2R,4aS,6aS,12bR,14aS)-10-hydroxy-2,4a,6a,9,12b,14a-hexamethyl-11-oxo-1,2,3,4,4a,5,6,6a,11,12b,13,14,14a,14b-tetradecahydropicen-2-yl)-N-methyl-2-(4-methylpiperazin-1-yl)-2-oxoacetamide]?
A: IC50 [1, 10]: 1150 nM; % IC50 relative to Celastrol [1]: 114%

Q: What does the source list for `CC1=C(O)C(=O)C=C2C1=CC=C1[C@@]2(C)CC[C@@]2(C)C3C[C@](C)(NC(=O)C(=O)N4CC5(COC5)C4)CC[C@]3(C)CC[C@]12C` (stereo partly drawn) [Compound 15, N-((2R,4aS,6aS,12bR,14aS)-10-hydroxy-2,4a,6a,9,12b,14a-hexamethyl-11-oxo-1,2,3,4,4a,5,6,6a,11,12b,13,14,14a,14b-tetradecahydropicen-2-yl)-2-oxo-2-(2-oxa-6-azaspiro[3.3]heptan-6-yl)acetamide]?
A: IC50 [1, 10]: 942 nM; % IC50 relative to Celastrol [1]: 93%

Q: How did the “suppression of TNF-α secretion” value [2] turn out when `CC1=C(O)C(=O)C=C2C1=CC=C1[C@@]2(C)CC[C@@]2(C)[C@@H]3C[C@](C)(C(=O)O)CC[C@]3(C)CC[C@]12C` [Compound 1, (2R,4aS,6aR,6aS,14aS,14bR)-10-hydroxy-2,4a,6a,6a,9,14a-hexamethyl-11-oxo-1,3,4,5,6,13,14,14b-octahydropicene-2-carboxylic acid, reference compound] was run?
A: no significant suppressive effect on TNF-α inflammatory cytokine secretion

Q: What about the IC50 ([1]; HepG2, IL-1β (20 ng/ml), 18 hours, normalized, Example 14, FIG. 1B, read-out: IC50 for NF-κB promoter activity) of the same compound?
A: 528 nM

Q: What about the IC50 [1, 10] of the same compound?
A: 667 nM

Q: And the “level of TNF-α in serum” value [3]?
A: decreased

Q: Which IC50 [1, 10] does the source give for `CC1=C(O)C(=O)C=C2C1=CC=C1[C@@]2(C)CC[C@@]2(C)C3C[C@](C)(NC(=O)C(=O)N4CCN(C)CC4)CC[C@]3(C)CC[C@]12C` (stereo partly drawn) [Compound 14, N-((2R,4aS,6aS,12bR,14aS)-10-hydroxy-2,4a,6a,9,12b,14a-hexamethyl-11-oxo-1,2,3,4,4a,5,6,6a,11,12b,13,14,14a,14b-tetradecahydropicen-2-yl)-2-(4-methylpiperazin-1-yl)-2-oxoacetamide] here?
A: 1160 nM

Q: And the “% IC50 relative to Celastrol” value [1]?
A: 115%

Q: What does the source list for `CC1=C(O)C(=O)C=C2C1=CC=C1[C@@]2(C)CC[C@@]2(C)C3C[C@](C)(NC(=O)C(=O)NC4CN(C)C4)CC[C@]3(C)CC[C@]12C` (stereo partly drawn) [Compound 17, N1-((2R,4aS,6aS,12bR,14aS)-10-hydroxy-2,4a,6a,9,12b,14a-hexamethyl-11-oxo-1,2,3,4,4a,5,6,6a,11,12b,13,14,14a,14b-tetradecahydropicen-2-yl)-N2-(1-methylazetidin-3-yl)oxalamide]?
A: IC50 [1, 10]: 1640 nM; % IC50 relative to Celastrol [1]: 163%

Q: For `CC(C)(O)c1coc(S(=O)(=O)NC(=O)Nc2c3c(cc4c2CCC4)CCC3)c1` [MCC950, reference compound], which IC50 ([4]; Homo sapiens, 0 μM to 10 μM, read-out: IC50 for LDH release (normalized)) is on record?
A: 124 nM

Q: And the “inhibition of LDH release” value [4]?
A: significantly inhibited release of LDH

Q: And the minimal effective concentration [5]?
A: 1 µM

Q: And the IC50 [6]?
A: 1250 nM

Q: What about the “suppression of TNF-α secretion” value [7] of the same compound?
A: neither CLM-022 nor MCC950 suppressed TNF-α secretion

Q: And the IC50 [8]?
A: 70 nM

Q: And the “cell viability (in words)” value [9]?
A: A similar effect
